Results published in the supplement of paper PMC8671470.

Experiments:
Test in all cases: cell viability (% survival relative to DMSO control); higher = less cytotoxic
Details in all cases: 72 h
[1] = test system: myeloid leukemia patient primary cells Pat.8
In short: (§1)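 Thawed, Ficoll-purified mononuclear cells from AML or CML patients in RPMI 1640 with 10% FBS were seeded at 10,000 cells/well on 384-well plates pre-printed with 70 compounds at five tenfold concentrations, 1–10,000 nM, in duplicate, for 72 h. Viability was read by CellTiter-Glo and normalised to DMSO and 10 μM proteasome-inhibitor wells. Where given, area under the curve came from four-parameter log-logistic fits (drc, PharmacoGx R packages).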

[2] = test system: myeloid leukemia patient primary cells Pat.5
In short: as §1

[3] = test system: myeloid leukemia patient primary cells Pat.14
In short: as §1

[4] = test system: myeloid leukemia patient primary cells Pat.2
In short: as §1

Row | Compound | cell viability ([1]; 1 nM) [%] | cell viability ([1]; 10 nM) [%] | cell viability ([1]; 100 nM) [%] | cell viability ([1]; 1000 nM) [%] | cell viability ([1]; 10000 nM) [%] | cell viability ([2]; 1 nM) [%] | cell viability ([2]; 10 nM) [%] | cell viability ([2]; 100 nM) [%] | cell viability ([2]; 1000 nM) [%] | cell viability ([2]; 10000 nM) [%] | cell viability ([3]; 1 nM) [%] | cell viability ([3]; 10 nM) [%] | cell viability ([3]; 100 nM) [%] | cell viability ([3]; 1000 nM) [%] | cell viability ([3]; 10000 nM) [%] | cell viability ([4]; 1 nM) [%] | cell viability ([4]; 10 nM) [%] | cell viability ([4]; 100 nM) [%] | cell viability ([4]; 1000 nM) [%] | cell viability ([4]; 10000 nM) [%]
1 | CCOC(=O)N1c2ccc(C(F)(F)F)cc2[C@@H](N(Cc2cc(C(F)(F)F)cc(C(F)(F)F)c2)C(=O)OC)C[C@H]1CC [Torcetrapib] | 92.3 | 84.8 | 96.1 | 93.3 | 65.7 | 56.9 | 0.265 | 97.4 | 27.5 | 1.18 | 84.7 | 51 | > 100 | 78.3 | 41.7 | 97.2 | 84.4 | 99.7 | 99.7 | 80.2
2 | CC(Cc1ccc(O)c(O)c1)C(C)Cc1ccc(O)c(O)c1 (stereo not given) [Masoprocol] | 97.6 | 84.9 | 95.6 | 69.7 | 6.74 | 57.1 | 7.88 | 76.6 | 21.6 | > 100 | > 100 | 85.7 | 96.7 | 55.8 | 68.1 | 98.7 | 89.8 | 90.3 | 87.7 | 68
3 | Nc1ccn([C@@H]2O[C@H](CO)[C@@H](O)[C@@H]2O)c(=O)n1 [Cytarabine] | 90.3 | 91.5 | 96.1 | 89.1 | 22.4 | 84.9 | 1.18 | 24.7 | 1.18 | 2.01 | 85.1 | 65.1 | 78.1 | 62.9 | 15.8 | 99 | 88.1 | 95.9 | 89.1 | 37.3
4 | Clc1ccc(COC(Cn2ccnc2)c2ccc(Cl)cc2Cl)cc1 (stereo not given) [Econazole] | 93.3 | 86.9 | 81 | > 100 | 85.3 | 42.3 | 90.6 | 35.2 | 6.55 | 1.33 | 64.1 | 90.1 | 82.3 | 76.3 | 0.228 | 94.9 | 91.2 | 96.5 | 97.6 | 90
5 | Sc1ncnc2nc[nH]c12 [6-mercaptopurine] | 80.3 | > 100 | 86.2 | 75.1 | 73 | 8.91 | 64.1 | 35.4 | 17.2 | 1.33 | 92.6 | > 100 | 74.8 | 97.9 | 88 | 95.6 | > 100 | 94 | 99.9 | > 100
6 | C[C@]12O[C@H](C[C@]1(O)CO)n1c3ccccc3c3c4c(c5c6ccccc6n2c5c31)CNC4=O [Lestaurtinib] | 87.6 | 75.8 | 61.9 | 54.6 | 0.632 | 22.6 | 2.27 | 10 | 11.2 | < 0 | 80.7 | 43.5 | 77.9 | 40.6 | 4.31 | 97.1 | 79 | 74.7 | 51.1 | 11.5
7 | C[C@H]1O[C@@H](O[C@H]2[C@@H](O)C[C@H](O[C@H]3[C@@H](O)C[C@H](O[C@H]4CC[C@@]5(C)[C@H](CC[C@@H]6[C@@H]5C[C@@H](O)[C@]5(C)[C@@H](C7=CC(=O)OC7)CC[C@]65O)C4)O[C@@H]3C)O[C@@H]2C)C[C@H](O)[C@@H]1O [Digoxin] | 84.6 | 96.1 | 67.2 | 6.59 | 5.15 | 82.9 | 77.9 | 9.05 | 2.24 | < 0 | 82.1 | 90.3 | 69.7 | 18.9 | 13.5 | 99.2 | 96.8 | 82.8 | 26.6 | 3.27
8 | COc1c(C)c2c(c(O)c1C/C=C(\C)CCC(=O)O)C(=O)OC2 [Mycophenolic acid] | 69.4 | 92.3 | 75.5 | 91.8 | 43.8 | < 0 | 62.9 | 26 | 67.3 | > 100 | 75.3 | 83.7 | 65.6 | 95.5 | 93.4 | 97.4 | 99.8 | 82.1 | > 100 | 85.6
9 | Cc1noc2c1-c1ccccc1C(c1ccc(Cl)cc1)=N[C@H]2CC(N)=O [CPI-0610] | 93.5 | 78.8 | 96.1 | 70 | 82.7 | 81.3 | 12.4 | 82.4 | 7.88 | 10.1 | > 100 | 84.9 | 86.4 | 60.3 | 60.7 | 99.4 | 97.6 | 88.9 | 58.5 | 40.3
10 | CCN(CC)CCN(Cc1ccc(-c2ccc(C(F)(F)F)cc2)cc1)C(=O)Cn1c(SCc2ccc(F)cc2)nc(=O)c2c1CCC2 [Darapladib] | 62.6 | 85.8 | 77.8 | 86.2 | 1.84 | 12.5 | 23.9 | 5.8 | < 0 | 8.02 | 65.7 | 92.2 | 52.5 | 52.1 | 2.36 | 84.7 | 95.9 | 83 | 83.1 | < 0
11 | CC12CCC(O)CC1CCC1C2CCC2(C)C(C3=CC(=O)OC3)CCC12O (stereo not given) [Digitoxigenin] | 91.6 | 89 | 78.4 | 7.34 | 2.31 | 56.2 | 38.7 | 33.1 | 0.265 | 4.43 | 95 | 66.5 | 78.4 | 22.2 | 18.3 | 94.1 | 95.3 | 88.5 | 42.4 | 6.42
